Source: patent US10375962B2, “Heterocycle derivatives as pesticides” (BAYER CROPSCIENCE AKTIENGESELLSCHAFT, priority 2016, dated 2019)

Experiments:
[1] = test system: southern root-knot nematode (Meloidogyne incognita); test: Meloidogyne incognita test; type: in vivo; conditions: application rate 20 ppm; lettuce; after 14 days
Experimental: Solvent: 125.0 parts by weight of acetone
To produce a suitable preparation of active compound, 1 part by weight of active compound is mixed with the stated amount of solvent and the concentrate is diluted with water to the desired concentration.
Vessels are filled with sand, active compound solution, an […] suspension of the southern root-knot nematode (Meloidogyne incognita) and lettuce seeds. The lettuce seeds germinate and the plants develop. The galls develop on the roots.
After 14 days, the nematicidal efficacy in % is determined by the formation of galls. 100% means that no galls were found; 0% means that the number of galls on the treated plants corresponds to the untreated control.

[2] = test system: caterpillars of the armyworm (Spodoptera frugiperda); test: Spodoptera frugiperda - spray test; type: in vivo; conditions: maize leaf discs, after 7 days
Experimental: Solvent: 78.0 parts by weight of acetone • • 1.5 parts by weight of dimethylformamide Emulsifier: alkylaryl polyglycol ether […] To produce further test concentrations, the formulation is diluted with emulsifier-containing water. Leaf discs of maize (Zea mays) are sprayed with an active compound preparation of the desired concentration and, after drying, populated with caterpillars of the armyworm (Spodoptera frugiperda).

[3] = log P by HPLC on a reversed-phase column (C 18), EEC Directive 79/831 Annex V.A8; type: physicochemical
From the text: Called log P (HCOOH) in the table.
Called log P (neutral) in the table.

[4] = test system: larvae of the mustard beetle (Phaedon cochleariae); test: Phaedon cochleariae - spray test; type: in vivo; conditions: after 7 days
Experimental: Solvent: 78.0 parts by weight of acetone • • 1.5 parts by weight of dimethylformamide
(§1) Emulsifier: alkylaryl polyglycol ether
(§2) To produce a suitable active compound formulation, 1 part by weight of active compound is dissolved with the stated parts by weight of solvent and made up with water containing an emulsifier concentration of 1000 ppm until the desired concentration is attained. To produce further test concentrations, the formulation is diluted with emulsifier-containing water.
Discs of Chinese cabbage leaves (Brassica pekinensis) are sprayed with an active compound formulation of the desired concentration and, after drying, populated with larvae of the mustard beetle (Phaedon cochleariae).
After 7 days, the efficacy in % is determined. 100% means that all the beetle larvae have been killed and 0% means that none of the beetle larvae have been killed.

[5] = test system: adult houseflies (Musca domestica); test: Musca domestica test; type: in vivo; conditions: application rate 100 ppm; after 2 days
Experimental: (§3) Solvent: dimethyl sulphoxide
(§4) To produce a suitable active compound formulation, 10 mg of active compound are mixed with 0.5 ml of dimethyl sulphoxide, and the concentrate is diluted with water to the desired concentration.
Vessels containing a sponge treated with sugar solution and the active compound formulation of the desired concentration are populated with 10 adult houseflies (Musca domestica).
After 2 days, the kill in % is determined. 100% means that all of the flies have been killed; 0% means that none of the flies have been killed.

[6] = test system: adult cat fleas (Ctenocephalides felis); test: Ctenocephalides felis - in vitro contact tests with adult cat fleas; type: in vivo; conditions: application rate 5 μg/cm^2; after 48 h
Experimental: For the coating of the test tubes, 9 mg of active compound are first dissolved in 1 ml of acetone p.a. and then diluted to the desired concentration with acetone p.a. 250 μl of the solution are distributed homogeneously on the inner walls and the base of a 25 ml test tube by turning and rocking on an orbital shaker (rocking rotation at 30 rpm for 2 h). With 900 ppm of active compound solution and internal surface area 44.7 cm^2, given homogeneous distribution, an area-based dose of 5 μg/cm^2 is achieved.
After the solvent has evaporated off, the tubes are populated with 5-10 adult cat fleas (Ctenocephalides felis), sealed with a perforated plastic lid and incubated in a horizontal position at room temperature and ambient humidity. After 48 h, efficacy is determined. To this end, the test tubes are stood upright and the fleas are knocked to the base of the tube. Fleas which remain motionless at the base or move in an uncoordinated manner are considered to be dead or moribund.
100% efficacy means that all the fleas were dead or moribund. 0% efficacy means that no fleas were harmed.

[7] = test system: green peach aphid (Myzus persicae); test: Myzus persicae spray test (bell pepper plants); type: in vivo; conditions: application rate 20 ppm, after 6 days
Experimental: Solvent: 14 parts by weight of dimethylformamide
as §1
as §2, with “water. If the addition of ammonium salts or/and penetrants is required, these are each added in a concentration of 1000 ppm to the formulation solution.” for “water.”
Bell pepper plants (Capsicum annuum) severely infested with the green peach aphid (Myzus persicae) are treated by spraying with the active compound formulation in the desired concentration.
After 6 days, the kill in % is determined. 100% means that all of the aphids have been killed; 0% means that none of the aphids have been killed.

[8] = test system: L1 larvae of the Australian sheep blowfly (Lucilia cuprina); test: Lucilia cuprina test; type: in vivo; conditions: application rate 100 ppm; after 2 days
Experimental: as §3, §4
About 20 L1 larvae of the Australian sheep blowfly (Lucilia cuprina) are transferred into a test vessel containing minced horsemeat and the active compound formulation of the desired concentration.
After 2 days, the kill in % is determined. 100% means that all the larvae have been killed; 0% means that no larvae have been killed.

[9] = test system: unfed adult cat fleas (Ctenocephalides felis); test: Ctenocephalides felis - oral test; type: in vivo; conditions: application rate 100 ppm in citrated cattle blood; after 2 days
Experimental: as §3
For the purpose of production of a suitable active compound formulation, 10 mg of active compound are mixed with 0.5 ml of dimethyl sulphoxide. Dilution with citrated cattle blood gives the desired concentration.
About 20 unfed adult cat fleas (Ctenocephalides felis) are placed into a chamber which is closed at the top and bottom with gauze. A metal cylinder whose bottom end is closed with parafilm is placed onto the chamber. The cylinder contains the blood/active compound formulation, which can be imbibed by the fleas through the parafilm membrane.
After 2 days, the kill in % is determined. 100% means that all of the fleas have been killed; 0% means that none of the fleas have been killed.

[10] = test system: engorged adult female cattle ticks (Boophilus microplus); test: Boophilus microplus - injection test; type: in vivo; conditions: application rate 20 μg/animal, after 7 days
Experimental: as §3
To produce a suitable active compound formulation, 10 mg of active compound are mixed with 0.5 ml of solvent and the concentrate is diluted with solvent to the desired concentration.
1 μl of the active compound solution is injected into the abdomen of 5 engorged adult female cattle ticks (Boophilus microplus). The animals are transferred into dishes and kept in a climate-controlled room.
Efficacy is assessed after 7 days by laying of fertile eggs. Eggs which are not visibly fertile are stored in a climate-controlled cabinet until the larvae hatch after about 42 days. An efficacy of 100% means that none of the ticks has laid any fertile eggs; 0% means that all the eggs are fertile.

[11] = test system: green peach aphid (Myzus persicae); test: Myzus persicae - spray test (Chinese cabbage leaf discs); type: in vivo; conditions: after 5 days
Experimental: Solvent: 78 parts by weight of acetone • • 1.5 parts by weight of dimethylformamide Emulsifier: alkylaryl polyglycol ether
as §2
Discs of Chinese cabbage leaves (Brassica pekinensis) infested by all stages of the green peach aphid (Myzus persicae) are sprayed with an active compound formulation of the desired concentration.
After 5 days, the efficacy in % is determined. 100% means that all the aphids have been killed and 0% means that none of the aphids have been killed.

LOGP_HCOOH (log P (HCOOH)) ([3]; pH 2.7) | LOGP_NEUTRAL (log P (neutral)) ([3]; pH 7.8) | LOGP_HCOOH (log P (HCOOH)) ([3]; acidic range, pH 2.7, 0.1% aqueous formic acid/acetonitrile, 55° C.) | LOGP_NEUTRAL (log P (neutral)) ([3]; neutral range, pH 7.8, 0.001 molar aqueous ammonium hydrogencarbonate/acetonitrile, 55° C.) | SMILES | nematicidal efficacy (formation of galls) [1] | efficacy ([2]; application rate 100 g/ha) | efficacy ([2]; application rate 500 g/ha) | efficacy ([4]; application rate 100 g/ha) | efficacy ([4]; application rate 500 g/ha) | efficacy (kill) [5] | efficacy (fleas dead or moribund) [6] | efficacy (kill) [7] | efficacy (kill) [8] | efficacy (kill) [9] | efficacy (laying of fertile eggs) [10] | efficacy ([11]; application rate 100 g/ha) | efficacy ([11]; application rate 500 g/ha)
4.41 | 4.39 |  |  | CCS(=O)(=O)c1ccc(-n2ccc3cc(Cl)cnc32)nc1-c1nc2cc(C(F)(F)F)ncc2n1C [Example I-27] | 100% | 100% | 100% | 100% | 100% |  |  |  |  |  |  |  | 
3.13 | 3.05 |  |  | CCS(=O)(=O)c1ccc(-n2ccc3ncc(Cl)cc32)nc1-c1nc2cc(C(F)(F)F)ncc2n1C [Example I-28] | 90% |  | 100% | 100% | 100% |  |  |  | 100% | 80% |  |  | 
2.70 | 2.72 |  |  | CCS(=O)(=O)c1ccc(-n2nc3cccc(Br)n3c2=O)nc1-c1nc2cc(C(F)(F)F)ncc2n1C [Example I-36] | 100% |  |  |  |  |  |  |  |  |  |  |  | 
 |  | 4.27 | 4.24 | CCS(=O)(=O)c1ccc(-n2ncc3c(Cl)cccc32)nc1-c1nc2cc(C(F)(F)F)ncc2n1C [Example I-10] |  | 100% | 100% | 100% | 100% | 100% |  |  | 100% |  | 80% |  | 

SMILES | LOGP_HCOOH (log P (HCOOH)) ([3]; pH 2.7) | LOGP_NEUTRAL (log P (neutral)) ([3]; pH 7.8) | LOGP_HCOOH (log P (HCOOH)) ([3]; acidic range, pH 2.7, 0.1% aqueous formic acid/acetonitrile, 55° C.) | LOGP_NEUTRAL (log P (neutral)) ([3]; neutral range, pH 7.8, 0.001 molar aqueous ammonium hydrogencarbonate/acetonitrile, 55° C.) | nematicidal efficacy (formation of galls) [1] | efficacy ([2]; application rate 100 g/ha) | efficacy ([2]; application rate 500 g/ha) | efficacy ([4]; application rate 100 g/ha) | efficacy ([4]; application rate 500 g/ha) | efficacy (kill) [5] | efficacy (fleas dead or moribund) [6] | efficacy (kill) [7] | efficacy (kill) [8] | efficacy (kill) [9] | efficacy (laying of fertile eggs) [10] | efficacy ([11]; application rate 100 g/ha) | efficacy ([11]; application rate 500 g/ha)
CCS(=O)(=O)c1ccc(N2Cc3ccc(Cl)cc3C2)nc1-c1nc2cc(C(F)(F)F)ncc2n1C [Example I-18] | 4.03 | 3.99 |  |  |  | 100% | 100% | 100% | 100% | 80% | 100% | 98% | 100% | 100% |  |  | 
CCS(=O)(=O)c1ccc(-n2ncc3cccnc32)nc1-c1nc2cc(C(F)(F)F)ncc2n1C [Example I-6] | 2.67 | 2.63 |  |  |  | 100% | 100% | 100% | 100% | 100% | 100% |  | 100% | 90% | 90% | 100% | 100%
